In one series the test system is S. griseolus PH3826. Put plainly: Metabolism of 10001 by strains transformed with pPAT108 (Example 14). To be noted: substrate 10001 120 ug/ml. The class given is in vitro ADME, Streptomyces griseolus. As to the method:
(§1) S. griseolus PH2003, S. griseus PH4001, S. ambofaciens PH4002, and S. lividans JI1326 were transformed with the plasmid pPAT108. The transformed S. griseolus strain, PH3826, was cultured for 24 hours in 150 mls of sporulation broth with 5 ug/ml thiostrepton. The transformed S. griseus strain, PH3832, and the transformed S. ambofaciens strain, PH3834, were cultured for 24 hours in 150 mls of trypticase soy broth with 5 ug/ml thiostrepton. The transformed S. lividans strain, PH3822, was similarly cultured in 150 mls of YEME broth with 5 ug/ml thiostrepton. Three hours before harvesting the cells, 50 mls of fresh medium of the same type with 5 ug/ml thiostrepton was added to each culture. The cells from each of the cultures were harvested by centrifugation, washed twice with 50 mMMOPS, pH7.2 and resuspended in five cell volumes of MOPS containing 0.2% glucose and 120 ug/ml of the sulfonylurea 10001. The cell suspensions were incubated at 30° C. with shaking and aliquots were removed at 0.5, 1, 2 and 4 hours. The supernatant of each aliquot was analyzed by HPLC and the concentration of the sulfonylurea compound 10001 and its metabolites 10002 and 10003 were determined.

The subject of series [1] is S. griseolus ATCC 11796 uninduced. Description: Sulfonylurea metabolism by washed cell suspension (Examples 5-9). The class given is in vitro ADME, Streptomyces griseolus. Here is the method: (§2) Herbicides and their metabolites are measured by HPLC as described by Romesser et al., BBRC 140: 650-659 (1986), herein incorporated by reference, except that 0.1% H3 PO4 is used in both solvents. Chromatographic identity and quantitation of the herbicides and their resulting metabolites is determined by comparing them chromatographically with authentic standard compounds. Identity of the resulting metabolites is also confirmed by UV spectroscopy.
A 100 ml culture of S. griseolus ATCC 11796 in sporulation broth and a 50 ml culture of S. lividans transformed with pCAO400 in YEME broth were prepared and incubated for 24 hours as described. At that time, the S. griseolus culture was split into two 50 ml aliquots into two separate flasks and 25 ml of fresh sporulation broth was added to each and 9 mg of […] was added to one of these cultures to induce cytochrome P450SU1 expression. Fresh YEME broth (25 ml) was added to the S. lividans culture. After an additional 6 hours growth at 30° C., the cells in each culture were harvested as described above, washed twice with MOPS (50 mM, pH 7.2) and recentrifuged. The cell pellets were resuspended in four cell volumes of MOPS (50 mM, pH 7.2) containing 0.2% glucose and about 100 μg/ml of 10004. These cell suspensions were incubated at 30° C. with shaking and aliqouts were taken at 2 and 5.5 hours. The supernatant of each aliquot was analyzed by HPLC and the concentrations of the sulfonylurea compound 10004 and its metabolite 10005 were determined.
S. lividans transformed respectively with pCAO200SU1-FeS-B#9, pCAO200SU#112and pCAO200 were cultured for 36 hours in 400 ml of YEME broth at 30° C. S. griseolus ATCC 11796 was similarly cultured in 400 ml of sporulation broth. Six hours before harvesting the cells, 150 ml of fresh YEME broth was added to the S. lividans cells, and the S. griseolus cells were split into two 200 ml cultures with 100 ml of fresh sporulation broth added to each. 10001 (36 mg) was added to one of the two S. griseolus cultures to induce cytochrome P450SU1. The cells were prepared as described above in Example 5 and the concentrations of the sulfonylurea compound 10006 and its metabolites 10007, 10008 or 10009 were determined.

For series [2], the system named is S. lividans pCAO200SU2-FeS-A#11. Description: Sulfonylurea metabolism by washed cell suspension (Examples 11-12). In kind it is in vitro ADME, Streptomyces lividans. To be noted: substrate 10001. Here is the method: S. lividans transformed with pCAO200SU2-FeS-A#11 and S. lividans transformed with pCAO200 were cultured for 36 hours in 400 ml of YEME broth at 30° C. S. griseolus PH2001 (mutant without SU1) was cultured in 400 ml of sporulation broth at 30° C. Nine hours before harvesting the cells, the S. griseolus PH2001 culture was divided into two 200 ml cultures. Both received 100 ml of fresh sporulation broth and one received 36 mg of 10001 to induce cytochrome P450SU2. The cells were prepared as described above in Example 6 and the concentrations of the sulfonylurea compound 10001 and its metabolites 10002 and 10003 were determined.

The subject of the next series is S. lividans pCAO200. Description: Sulfonylurea metabolism by washed cell suspension (Examples 6-9). In kind it is in vitro ADME, Streptomyces lividans.
Series [3] has as its system S. griseolus ATCC 11796 induced with 10001. Description: Sulfonylurea metabolism by washed cell suspension (Examples 5-9). In kind it is in vitro ADME, Streptomyces griseolus.
Series [4] relates to S. lividans transformed with pCAO401. Description: Metabolism of 10001 in growing culture, HPLC of supernatant (Example 4). To be noted: 0.12 mg/ml 10001 in culture. The class given is in vitro ADME, Streptomyces lividans. As to the method:
as §2
(§3) Separate cultures (50 ml) inoculated with S. lividans C37, S. lividans transformed with pCAO400 or S. lividans transformed with pCAO401 in sporulation broth containing 0.12 mg/ml of 10001 were grown with shaking at 30° C. Aliquots (1.5 ml) of each culture were removed at 24, 32, 48 and 56 hours after inoculation and the supernatant of each aliquot was analyzed by HPLC for its concentration of 10001 and its metabolites 10002 or 10003.

Series [5] relates to S. lividans transformed with pCAO400. The description is as above. The class given is in vitro ADME, Streptomyces lividans. To be noted: 0.12 mg/ml 10001 in culture. As to the method: as §2, §3
The test system of the next series is S. lividans PH3822. Put plainly: Metabolism of 10001 by strains transformed with pPAT108 (Example 14). In kind it is in vitro ADME, Streptomyces lividans. To be noted: substrate 10001 120 ug/ml. Here is the method: as §1

For the compound `CCOC(=O)c1ccccc1S(=O)(=O)NC(=O)Nc1nc(Cl)cc(OC)n1` [compound 10001, N-[(4-chloro-6-methoxy-pyrimidin-2-yl)aminocarbonyl]-2-ethoxycarbonylbenzenesulfonamide], the concentration in supernatant in the series with S. griseolus PH3826 (0.5 h) turned out to be 222 µM; with S. griseolus PH3826 (1.0 h), 137 µM; in the series with S. griseolus PH3826 (2.0 h), 19 µM; in the series with S. griseolus PH3826 (4.0 h), 0 µM; in series [1] (substrate 10001, 2 h), 244 µM; in series [1] (substrate 10001, 4 h), 167 µM. Besides, the concentration in supernatant in series [1] (substrate 10001, 6 h) turned out to be 86 µM; in series [2] (2 h), 279 µM; in series [2] (4 h), 273 µM; in series [2] (6 h), 251 µM; in the series with S. lividans pCAO200 (substrate 10001, 2 h) it was 301 µM; in the series on S. lividans pCAO200 (substrate 10001, 4 h), 287 µM. Moreover, the concentration in supernatant in the series with S. lividans pCAO200 (substrate 10001, 6 h) was 313 µM; in series [3] (substrate 10001, 2 h), 220 µM; in series [3] (substrate 10001, 4 h) it was 36 µM; in series [3] (substrate 10001, 6 h), 3 µM; in series [4] (0 h), 284 µM; in series [4] (24 h) it was 230 µM. Also, the concentration in supernatant in series [4] (32 h) is 203 µM; in series [4] (48 h), 123 µM; in series [4] (56 h), 105 µM; in series [5] (0 h) it was 300 µM; in series [5] (24 h), 269 µM; in series [5] (32 h), 240 µM. Besides, the concentration in supernatant in series [5] (48 h) turned out to be 184 µM; in series [5] (56 h), 137 µM; in the series with S. lividans PH3822 (0.5 h), 294 µM; in the series on S. lividans PH3822 (1.0 h), 284 µM; in the series with S. lividans PH3822 (2.0 h), 262 µM; with S. lividans PH3822 (4.0 h) it was 232 µM.

For the compound `CCOC(=O)c1ccccc1S(=O)(=O)NC(=O)Nc1nc(O)cc(Cl)n1` [compound 10002, N-[(4-chloro-6-hydroxy-pyrimidin-2-yl)aminocarbonyl]-2-ethoxycarbonylbenzenesulfonamide], the concentration in supernatant is 41 µM with S. griseolus PH3826 (0.5 h); 101 µM with S. griseolus PH3826 (1.0 h); 171 µM in the series on S. griseolus PH3826 (2.0 h); 189 µM with S. griseolus PH3826 (4.0 h); 7 µM in series [2] (2 h); 12 µM in series [2] (4 h). Besides, the concentration in supernatant in series [2] (6 h) worked out at 15 µM; in the series with S. lividans pCAO200 (substrate 10001, 2 h), 2 µM; in the series with S. lividans pCAO200 (substrate 10001, 4 h), 1 µM; in the series with S. lividans pCAO200 (substrate 10001, 6 h), 2 µM; in series [4] (0 h), 0 µM; in series [4] (24 h), 32 µM. Moreover, the concentration in supernatant is 44 µM in series [4] (32 h); 63 µM in series [4] (48 h); 71 µM in series [4] (56 h); 0 µM in series [5] (0 h); 17 µM in series [5] (24 h); 25 µM in series [5] (32 h). The concentration in supernatant in series [5] (48 h) was found to be 39 µM; in series [5] (56 h), 47 µM; in the series on S. lividans PH3822 (0.5 h), 2 µM; in the series with S. lividans PH3822 (1.0 h), 5 µM; in the series on S. lividans PH3822 (2.0 h), 10 µM; in the series with S. lividans PH3822 (4.0 h) it was 25 µM.

With `COc1cc(Cl)nc(NC(=O)NS(=O)(=O)c2ccccc2C(=O)O)n1` [compound 10003, N-[(4-chloro-6-methoxy-pyrimidin-2-yol)aminocarbonyl]-2-carboxybenzenesulfonamide], the concentration in supernatant in the series with S. griseolus PH3826 (0.5 h) was 22 µM; in the series on S. griseolus PH3826 (1.0 h) it was 58 µM; with S. griseolus PH3826 (2.0 h), 97 µM; in the series with S. griseolus PH3826 (4.0 h), 107 µM; in series [1] (substrate 10001, 2 h), 14 µM; in series [1] (substrate 10001, 4 h), 37 µM. The concentration in supernatant is 62 µM in series [1] (substrate 10001, 6 h); 1 µM in series [2] (2 h); 2 µM in series [2] (4 h); 3 µM in series [2] (6 h); 1 µM with S. lividans pCAO200 (substrate 10001, 2 h); 1 µM in the series with S. lividans pCAO200 (substrate 10001, 4 h). Also, the concentration in supernatant with S. lividans pCAO200 (substrate 10001, 6 h) was 2 µM; in series [3] (substrate 10001, 2 h), 76 µM; in series [3] (substrate 10001, 4 h), 128 µM; in series [3] (substrate 10001, 6 h), 142 µM; in series [4] (0 h), 0 µM; in series [4] (24 h) it was 26 µM. In addition, the concentration in supernatant in series [4] (32 h) was 36 µM; in series [4] (48 h), 46 µM; in series [4] (56 h) it was 48 µM; in series [5] (0 h), 0 µM; in series [5] (24 h), 16 µM; in series [5] (32 h), 22 µM. The concentration in supernatant in series [5] (48 h) came to 28 µM; in series [5] (56 h), 29 µM; in the series on S. lividans PH3822 (0.5 h), 1 µM; in the series with S. lividans PH3822 (1.0 h), 3 µM; in the series on S. lividans PH3822 (2.0 h), 5 µM; with S. lividans PH3822 (4.0 h), 15 µM.

In the case of `COC(=O)c1ccccc1S(=O)(=O)NC(=O)Nc1nc(C)cc(C)n1` [compound 10010, N-[(4,6-dimethylpyrimidin-2-yl)aminocarbonyl]-2-methoxycarbonylbenzenesulfonamide], the concentration in supernatant in series [1] (substrate 10010, 2 h) amounted to 70 µM; in series [1] (substrate 10010, 4 h) it was 49 µM; in series [1] (substrate 10010, 6 h), 37 µM; in the series on S. lividans pCAO200 (substrate 10010, 2 h), 90 µM; in the series with S. lividans pCAO200 (substrate 10010, 4 h) it was 89 µM; in the series on S. lividans pCAO200 (substrate 10010, 6 h) it was 89 µM. Further, the concentration in supernatant in series [3] (substrate 10010, 2 h) stood at 40 µM; in series [3] (substrate 10010, 4 h), 8 µM; in series [3] (substrate 10010, 6 h), 4 µM.

The values are drawn from patent US5349127A, “Expression of herbicide metabolizing cytochromes P450” (priority 1992, dated 1994).
